The test system of series [1] is Staphylococcus aureus. Description: Antibacterial activity against Staphylococcus aureus Smith after 24 hrs by broth microdilution method. Type of series: functional. The following applies: read-out: MIC. A general note: Dilution methods test growth across graded concentrations, often in twofold steps.
The next series has as its system Streptococcus pyogenes. Description: Antibacterial activity against Streptococcus pyogenes C203 after 24 hrs by broth microdilution method. Type of series: functional. The following applies: C203, 24 h.
For series [2], the system named is Enterococcus faecalis. Put plainly: Antibacterial activity against Enterococcus faecalis after 24 hrs by broth microdilution method. Type of series: functional. The following applies: read-out: MIC.
The test system of series [3] is Staphylococcus aureus. Description: Antibacterial activity against methicillin-resistant and vancomycin-intermediate resistant Staphylococcus aureus clinical isolate after 24 hrs by broth microdilution method. Format: functional.
Series [4] can be described thus: Toxicity assessed as hemolysis in erythrocytes at 180 mg/L. Type of series: cell-based, Erythrocyte. Conditions: human; for hemolysis at 180 mg/L: erythrocytes, read-out: Activity.
A further series relates to Escherichia coli. Description: Antibacterial activity against Escherichia coli SKF-12140 after 24 hrs by broth microdilution method. Type of series: functional.
The test system of another series is Candida albicans. Put plainly: Antifungal activity against Candida albicans SKF-2270 after 24 hrs by broth microdilution method. Type of series: functional.
The test system of series [5] is Enterococcus faecalis. Description: Antibacterial activity against vancomycin A-resistant Enterococcus faecalis after 24 hrs by broth microdilution method. Type of series: functional. The following applies: read-out: MIC.
Series [6] has as its system Enterococcus faecium. Put plainly: Antibacterial activity against vancomycin A-resistant Enterococcus faecium clinical isolate after 24 hrs by broth microdilution method. Format: functional. The following applies: read-out: MIC.
Series [7] deals with Staphylococcus aureus. Put plainly: Antibacterial activity against vancomycin-intermediate resistant Staphylococcus aureus clinical isolate after 24 hrs by broth microdilution method. Type of series: functional.
The nature of series [8]: Toxicity assessed as hemolysis in erythrocytes at 90 mg/L. Conditions: human; for hemolysis at 90 mg/L: erythrocytes, read-out: Activity. Type of series: cell-based, Erythrocyte.
Series [9] concerns Staphylococcus aureus. Description: Antibacterial activity against methicillin-resistant Staphylococcus aureus clinical isolate after 24 hrs by broth microdilution method. Type of series: functional. Conditions: read-out: MIC.
In series [10] the test system is Enterococcus faecium. Description: Antibacterial activity against Enterococcus faecium after 24 hrs by broth microdilution method. Format: functional. The following applies: read-out: MIC.

Values after ≈ are worked out from the molar mass of the structure shown.

`Cc1ccc(CC(=O)N[C@@H](CC(N)=O)C(=O)NC[C@@H]2C(=O)N[C@H](c3ccc(O)cc3)C(=O)N[C@H](CCCN)C(=O)N[C@H](C(C)C)C(=O)N[C@@H](c3ccc(O)cc3)C(=O)N[C@H](c3ccc(O)cc3)C(=O)N[C@@H]([C@@H](C)O)C(=O)N[C@@H](Cc3ccccc3)C(=O)N[C@H](CCCN)C(=O)N[C@@H](c3ccc(O[C@H]4O[C@H](CO)[C@@H](O)[C@H](O)[C@@H]4O[C@H]4O[C@H](CO)[C@@H](O)[C@H](O)[C@@H]4O)cc3)C(=O)N[C@H]([C@@H](C)O)C(=O)N[C@@H](c3ccc(O)cc3)C(=O)NCC(=O)N[C@@H](CC(C)C)C(=O)N[C@H](C)C(=O)N[C@@H](c3ccc(O)c(Cl)c3)C(=O)O[C@@H]2C(N)=O)cc1`: the MIC (commonly the lowest concentration found to suppress growth) in the series on Staphylococcus aureus [1] is 0.001 µg/mL (≈ 0.00039 µM); in the series on Streptococcus pyogenes, 0.06 µg/mL (≈ 0.0234 µM); in the series with Enterococcus faecalis [2], 0.002 µg/mL (≈ 0.000781 µM); against Staphylococcus aureus [3] it was 8 µg/mL (≈ 3.12 µM); with Escherichia coli, more than 32 µg/mL; against Candida albicans, more than 32 µg/mL. The MIC in the series on Enterococcus faecalis [5] came to 0.002 µg/mL (≈ 0.000781 µM); with Enterococcus faecium [6], 0.002 µg/mL (≈ 0.000781 µM); against Staphylococcus aureus [7], 0.008 µg/mL (≈ 0.00312 µM); in the series with Staphylococcus aureus [9], 0.002 µg/mL (≈ 0.000781 µM); with Enterococcus faecium [10], 0.004 µg/mL (≈ 0.00156 µM). In addition, the Activity in series [4] (erythrocyte) and in series [8] (erythrocyte) was 0% each time.
Consider `CC(C)C[C@@H]1NC(=O)CNC(=O)[C@H](c2ccc(O)cc2)NC(=O)[C@@H]([C@@H](C)O)NC(=O)[C@H](c2ccc(O[C@H]3O[C@H](CO)[C@@H](O)[C@H](O)[C@@H]3O[C@H]3O[C@H](CO)[C@@H](O)[C@H](O)[C@@H]3O)cc2)NC(=O)[C@@H](CCCN)NC(=O)[C@H](Cc2ccccc2)NC(=O)[C@H]([C@@H](C)O)NC(=O)[C@@H](c2ccc(O)cc2)NC(=O)[C@H](c2ccc(O)cc2)NC(=O)[C@@H](C(C)C)NC(=O)[C@@H](CCCN)NC(=O)[C@@H](c2ccc(O)cc2)NC(=O)[C@@H](CNC(=O)[C@H](CC(N)=O)NC(=O)c2ccccc2)[C@@H](C(N)=O)OC(=O)[C@H](c2ccc(O)c(Cl)c2)NC(=O)[C@@H](C)NC1=O`, for which the minimal inhibitory concentration (MIC) is 8 µg/mL (≈ 3.16 µM) in the series on Staphylococcus aureus [1]; 0.125 µg/mL (≈ 0.0493 µM) with Streptococcus pyogenes (read-out: MIC); 4 µg/mL (≈ 1.58 µM) in the series with Enterococcus faecalis [2]; more than 32 µg/mL in the series with Staphylococcus aureus [3] (read-out: MIC); more than 32 µg/mL in the series on Escherichia coli (read-out: MIC); more than 32 µg/mL with Candida albicans (read-out: MIC). Also, the MIC with Enterococcus faecalis [5] stood at 4 µg/mL (≈ 1.58 µM); in the series with Enterococcus faecium [6], 4 µg/mL (≈ 1.58 µM); against Staphylococcus aureus [7], 32 µg/mL (≈ 12.6 µM); with Staphylococcus aureus [9], 8 µg/mL (≈ 3.16 µM); in the series on Enterococcus faecium [10] it was 8 µg/mL (≈ 3.16 µM). In [4], the hemolysis at 180 mg/L came out at 4%. In series [8], the hemolysis at 90 mg/L was found to be 0%.
Take `CC(C)C[C@@H]1NC(=O)CNC(=O)[C@H](c2ccc(O)cc2)NC(=O)[C@@H]([C@@H](C)O)NC(=O)[C@H](c2ccc(O[C@H]3O[C@H](CO)[C@@H](O)[C@H](O)[C@@H]3O[C@H]3O[C@H](CO)[C@@H](O)[C@H](O)[C@@H]3O)cc2)NC(=O)[C@@H](CCCN)NC(=O)[C@H](Cc2ccccc2)NC(=O)[C@H]([C@@H](C)O)NC(=O)[C@@H](c2ccc(O)cc2)NC(=O)[C@H](c2ccc(O)cc2)NC(=O)[C@@H](C(C)C)NC(=O)[C@@H](CCCN)NC(=O)[C@@H](c2ccc(O)cc2)NC(=O)[C@@H](CNC(=O)[C@H](CC(N)=O)NC(=O)Cc2ccc3ccccc3c2)[C@@H](C(N)=O)OC(=O)[C@H](c2ccc(O)c(Cl)c2)NC(=O)[C@@H](C)NC1=O.Cl`: the MIC with Staphylococcus aureus [1] is 0.25 µg/mL; in the series with Streptococcus pyogenes (read-out: MIC), not above 0.03 µg/mL; with Enterococcus faecalis [2] it was 0.125 µg/mL; with Staphylococcus aureus [3] (read-out: MIC), 1 µg/mL; in the series with Escherichia coli (read-out: MIC), more than 32 µg/mL; with Candida albicans (read-out: MIC) it was more than 32 µg/mL. Besides, the MIC with Enterococcus faecalis [5] is 0.125 µg/mL; in the series on Enterococcus faecium [6], 0.25 µg/mL; with Staphylococcus aureus [7] it was 1 µg/mL; in the series on Staphylococcus aureus [9], 0.25 µg/mL; in the series with Enterococcus faecium [10], 0.25 µg/mL. In addition, the hemolysis at 180 mg/L in series [4] was 59%. The hemolysis at 90 mg/L in series [8] stood at 24%.
For `CC(C)C[C@@H]1NC(=O)CNC(=O)[C@H](c2ccc(O)cc2)NC(=O)[C@@H]([C@@H](C)O)NC(=O)[C@H](c2ccc(O[C@H]3O[C@H](CO)[C@@H](O)[C@H](O)[C@@H]3O[C@H]3O[C@H](CO)[C@@H](O)[C@H](O)[C@@H]3O)cc2)NC(=O)[C@@H](CCCN)NC(=O)[C@H](Cc2ccccc2)NC(=O)[C@H]([C@@H](C)O)NC(=O)[C@@H](c2ccc(O)cc2)NC(=O)[C@H](c2ccc(O)cc2)NC(=O)[C@@H](C(C)C)NC(=O)[C@@H](CCCN)NC(=O)[C@@H](c2ccc(O)cc2)NC(=O)[C@@H](CNC(=O)[C@H](CC(N)=O)NC(=O)c2cccc3ccccc23)[C@@H](C(N)=O)OC(=O)[C@H](c2ccc(O)c(Cl)c2)NC(=O)[C@@H](C)NC1=O`, the MIC with Staphylococcus aureus [1] was 1 µg/mL (≈ 0.387 µM); with Streptococcus pyogenes (read-out: MIC), not above 0.03 µg/mL; with Enterococcus faecalis [2], 0.5 µg/mL (≈ 0.193 µM); with Staphylococcus aureus [3] (read-out: MIC), 8 µg/mL (≈ 3.1 µM); with Escherichia coli (read-out: MIC), more than 32 µg/mL; in the series on Candida albicans (read-out: MIC), more than 32 µg/mL. The MIC in the series with Enterococcus faecalis [5] is 0.5 µg/mL (≈ 0.193 µM); in the series with Enterococcus faecium [6] it was 1 µg/mL (≈ 0.387 µM); against Staphylococcus aureus [7], 8 µg/mL (≈ 3.1 µM); in the series on Staphylococcus aureus [9], 2 µg/mL (≈ 0.774 µM); with Enterococcus faecium [10] it was 1 µg/mL (≈ 0.387 µM). In addition, the hemolysis at 180 mg/L in series [4] worked out at 25%. For the same compound, the hemolysis at 90 mg/L in [8] came out at 14%.
Turning to `CC(C)C[C@@H]1NC(=O)CNC(=O)[C@H](c2ccc(O)cc2)NC(=O)[C@@H]([C@@H](C)O)NC(=O)[C@H](c2ccc(O[C@H]3O[C@H](CO)[C@@H](O)[C@H](O)[C@@H]3O[C@H]3O[C@H](CO)[C@@H](O)[C@H](O)[C@@H]3O)cc2)NC(=O)[C@@H](CCCN)NC(=O)[C@H](Cc2ccccc2)NC(=O)[C@H]([C@@H](C)O)NC(=O)[C@@H](c2ccc(O)cc2)NC(=O)[C@H](c2ccc(O)cc2)NC(=O)[C@@H](C(C)C)NC(=O)[C@@H](CCCN)NC(=O)[C@@H](c2ccc(O)cc2)NC(=O)[C@@H](CNC(=O)[C@H](CC(N)=O)NC(=O)Cc2ccc(O)cc2)[C@@H](C(N)=O)OC(=O)[C@H](c2ccc(O)c(Cl)c2)NC(=O)[C@@H](C)NC1=O`, the MIC with Staphylococcus aureus [1] is more than 32 µg/mL; in the series on Streptococcus pyogenes (read-out: MIC) it was 1 µg/mL (≈ 0.39 µM); in the series with Enterococcus faecalis [2], more than 32 µg/mL; in the series on Staphylococcus aureus [3] (read-out: MIC), more than 32 µg/mL; in the series on Escherichia coli (read-out: MIC), more than 32 µg/mL; in the series with Candida albicans (read-out: MIC) it was more than 32 µg/mL. The MIC in the series on Staphylococcus aureus [7], in the series with Staphylococcus aureus [9] and in the series on Enterococcus faecium [10] was more than 32 µg/mL each time. Also, the hemolysis at 180 mg/L in series [4] worked out at 0%. In addition, in series [8], the hemolysis at 90 mg/L was 0%.

The values are drawn from ChEMBL document CHEMBL1145390, “Synthesis and preliminary biological characterization of new semisynthetic derivatives of ramoplanin” (J Med Chem, 2007).
